Source: ChEMBL document CHEMBL5104093, “A comprehensive review on β-lapachone: Mechanisms, structural modifications, and therapeutic potentials” (Eur J Med Chem, 2021)
≈ marks a conversion by molar mass, not a printed value.

Experiments:
[1] = system: Mycobacterium tuberculosis; experiment: Antimycobacterial activity against Mycobacterium tuberculosis H37Rv ATCC 27294 assessed as bacterial growth inhibition incubated for 7 days by resazurin dye based microtiter assay; assay type: functional; conditions: ATCC 27294, 168 h, time 7 day
HCT-116 = experiment: Cytotoxicity against human HCT-116 cells assessed as reduction in cell viability by MTT assay; assay type: functional, cell-based
HL-60 [2] = experiment: Cytotoxicity against human HL-60 cells assessed as reduction in cell viability by MTT assay; assay type: functional, cell-based
OVCAR-8 = experiment: Cytotoxicity against human OVCAR-8 cells assessed as reduction in cell viability by MTT assay; assay type: functional, cell-based
SF-295 [3] = experiment: Cytotoxicity against human SF-295 cells assessed as reduction in cell viability by MTT assay; assay type: functional, cell-based
Trypanosoma cruzi [4] = experiment: Antitrypanosomal activity against bloodstream form of Trypanosoma cruzi Y trypomastigotes infected in albino mouse assessed as reduction in viable parasite in blood by Neubauer counting chamber method; assay type: functional, organism-based
Jurkat = experiment: Cytotoxicity against human Jurkat cells assessed as reduction in cell viability incubated for 72 hrs by MTT assay; assay type: functional, cell-based
MOLT-4 = experiment: Cytotoxicity against human MOLT-4 cells assessed as reduction in cell viability incubated for 72 hrs by MTT assay; assay type: functional, cell-based; conditions: MOLT-4, 72 h
K562 = experiment: Cytotoxicity against human K562 cells assessed as reduction in cell viability incubated for 72 hrs by MTT assay; assay type: functional, cell-based; conditions: K562, 72 h
MDA-MB-435 = experiment: Cytotoxicity against human MDA-MB-435 cells assessed as reduction in cell viability incubated for 72 hrs by MTT assay; assay type: functional, cell-based; conditions: MDA-MB-435, 72 h
SF-295 [5] = experiment: Cytotoxicity against human SF-295 cells assessed as reduction in cell viability incubated for 72 hrs by MTT assay; assay type: functional, cell-based; conditions: SF-295, 72 h
HL-60 [6] = experiment: Cytotoxicity against human HL-60 cells assessed as reduction in cell viability incubated for 72 hrs by MTT assay; assay type: functional, cell-based; conditions: HL-60, 72 h
HCT-8 = experiment: Cytotoxicity against human HCT-8 cells assessed as reduction in cell viability incubated for 72 hrs by MTT assay; assay type: functional, cell-based; conditions: HCT-8, 72 h
[7] = Cytotoxicity against monkey LLC-MK2 cells assessed as reduction in cell viability incubated for 96 hrs by trypan blue assay; assay type: toxicity, cell-based, Macaca mulatta; conditions: rhesus monkey, read-out: LC50
Trypanosoma cruzi [8] = experiment: Antitrypanosomal activity against bloodstream form of Trypanosoma cruzi Y trypomastigotes infected in Swiss Webster mouse assessed as reduction in viable parasite in blood incubated for 24 hrs by Neubauer counting chamber based light microscopic analysis; assay type: functional, organism-based
Trypanosoma cruzi [9] = experiment: Antitrypanosomal activity against bloodstream form of Trypanosoma cruzi trypomastigotes infected in Swiss mouse assessed as reduction in viable parasite in blood incubated for 24 hrs by Neubauer counting chamber method; assay type: functional, organism-based
HEp-2 = experiment: Cytotoxicity against human HEp-2 cells assessed as reduction in cell viability incubated for 72 hrs by MTT assay; assay type: functional, cell-based; conditions: HEp-2, 72 h
NCI-H292 = experiment: Cytotoxicity against human NCI-H292 cells assessed as reduction in cell viability incubated for 72 hrs by MTT assay; assay type: functional, cell-based; conditions: NCI-H292, 72 h
PC-3 = experiment: Cytotoxicity against human PC-3 cells assessed as reduction in cell viability incubated for 72 hrs by MTT assay; assay type: functional, cell-based; conditions: PC-3, 72 h
B16 = experiment: Cytotoxicity against mouse B16 cells assessed as reduction in cell viability incubated for 72 hrs by MTT assay; assay type: functional, cell-based; conditions: B16, 72 h
Staphylococcus aureus = experiment: Antibacterial activity against Staphylococcus aureus 2065 MA assessed as diameter of bacterial growth inhibition by Mueller-Hinton broth based assay; assay type: functional
Trypanosoma cruzi [10] = experiment: Antitrypanosomal activity against bloodstream form of Trypanosoma cruzi Y trypomastigotes infected in albino mouse assessed as reduction in viable parasite in blood incubated for 24 hrs by Neubauer counting chamber method; assay type: functional, organism-based

For `CC1(C)OC2=C(C(=O)C(=O)c3ccccc32)[C@H](n2cc(-c3ccc(F)cc3)nn2)[C@H]1Br`, the MIC [1] was less than 6.25 µg/mL.

Molecule `CC1(C)O[C@@H]2O[C@@H](COC3C4=C(OC3(C)C)c3ccccc3C(=O)C4=O)[C@H]3OC(C)(C)O[C@H]3[C@@H]2O1` (some centres not stated) has an IC50 (HCT-116) of 0.16 µM, an IC50 (HL-60 [2]) of 0.16 µM and an IC50 (OVCAR-8) of 0.16 µM. It also gave an IC50 (SF-295 [3]) of 0.16 µM.

With `COc1ccc(/C=C/C(=O)c2ccc(NC3C4=C(OC3(C)C)c3ccccc3C(=O)C4=O)cc2)cc1` (configuration not stated) the IC50 (Trypanosoma cruzi [4]) was 230 µM.

`C=CCC1Cc2c(c3ccccc3c3nc4ccccc4nc23)OC1(C)C` (configuration not stated) gave an MIC [1] of 0.78 µg/mL (≈ 2.2 µM).

With `O=C1C(=O)c2ccccc2C2=C1CC(CI)O2` (configuration not stated) the IC50 (Jurkat) was 1.38 µM, the IC50 (MOLT-4) was 1.38 µM and the IC50 (K562) was 1.38 µM.

For `O=C1C(=O)c2c(O)cccc2C2=C1CCC(c1ccc(F)cc1)O2` (configuration not stated), the IC50 (MDA-MB-435) was 0.15 µM, the IC50 (SF-295 [5]) was 0.21 µM and the IC50 (HL-60 [6]) was 0.21 µM. It also gave an IC50 (HCT-8) of 0.21 µM.

In the case of `CCCCCCCCCCC1CC2=C(O1)c1ccccc1C(=O)C2=O` (configuration not stated), the CC50 at 96 h [7] is reported as 1700 µM.

`CC1(C)CCc2c(c3ccccc3c3nc(-c4cccc(F)c4)[nH]c23)O1` showed an MIC [1] of 1.56 µg/mL (≈ 4.5 µM).

In the case of `CC1CC2=C(O1)c1ccccc1C(=O)C2=O` (configuration not stated), the IC50 (HL-60 [6]) is reported as 1.11 µM.

Work on `Cc1ccc(-c2cc(NC3C4=C(OC3(C)C)c3ccccc3C(=O)C4=O)n(-c3ccccc3)n2)cc1` (configuration not stated) yielded an IC50 (HCT-116) of 0.72 µM, an IC50 (HL-60 [2]) of 0.34 µM and an IC50 (OVCAR-8) of 0.99 µM. The IC50 (SF-295 [3]) was 1.05 µM.

Molecule `O=C1C(=O)c2c(O)cccc2C2=C1CCC(c1ccc(Cl)cc1)O2` (configuration not stated) has an IC50 (MDA-MB-435) of 0.15 µM, an IC50 (SF-295 [5]) of 0.17 µM and an IC50 (HL-60 [6]) of 0.17 µM. For the same molecule, the IC50 (HCT-8) was 0.17 µM.

For `CC1(C)OC2=C(CC1[Se]c1cccc(C(F)(F)F)c1)C(=O)C(=O)c1ccccc12` (configuration not stated), the IC50 (Trypanosoma cruzi [4]) was 54.9 µM and the IC50 (Trypanosoma cruzi [8]) was 54.9 µM.

With `Cc1ccccc1-c1nc2c([nH]1)c1c(c3ccccc32)OC(C)(C)CC1` the MIC [1] was 1.56 µg/mL (≈ 4.56 µM) and the IC50 (Trypanosoma cruzi [9]) was 37.5 µM.

With `Cc1ccc(-c2nc3c([nH]2)c2c(c4ccccc43)OC(C)(C)CC2)cc1` the MIC [1] was 3.12 µg/mL (≈ 9.11 µM).

For `O=C1C(=O)c2c(O)cccc2C2=C1CCC(c1ccccc1)O2` (configuration not stated), the IC50 (MDA-MB-435) was 0.11 µM, the IC50 (SF-295 [5]) was 0.11 µM and the IC50 (HL-60 [6]) was 0.11 µM. It also gave an IC50 (HCT-8) of 0.11 µM.

`COc1ccc(-c2cn([C@H]3C4=C(OC(C)(C)[C@@H]3Br)c3ccccc3C(=O)C4=O)nn2)cc1` gave an MIC [1] of less than 6.25 µg/mL.

`CC1(C)OC2=C(C(=O)C(=O)c3ccccc32)C1CO` (configuration not stated) showed an IC50 (HEp-2) of 0.46 µM and an IC50 (NCI-H292) of 0.46 µM.

In the case of `CC1(C)CCc2c(c3ccccc3c3nc(-c4ccc([N+](=O)[O-])cc4)[nH]c23)O1`, the MIC [1] is reported as greater than 100 µg/mL.

`CC1(C)OC2=C(C(=O)C(=O)c3ccccc32)C1N=[N+]=[N-]` (configuration not stated) showed an IC50 (MDA-MB-435) of 1.19 µM, an IC50 (SF-295 [5]) of 1.19 µM and an IC50 (HL-60 [6]) of 1.19 µM. For the same molecule, the IC50 (PC-3) was 1.19 µM, the IC50 (B16) was 1.19 µM and the IC50 (HCT-8) was 1.19 µM.

For `O=C(Cn1ccnc1[N+](=O)[O-])NCc1ccccc1` [BENZNIDAZOLE], the CC50 at 96 h [7] was 324 µM and the IC50 (Trypanosoma cruzi [8]) was 104 µM.

Work on `CC(=O)OC[C@H]1O[C@@H](OCc2cn(C3C4=C(OC3(C)C)c3ccccc3C(=O)C4=O)nn2)[C@H](OC(C)=O)[C@@H](OC(C)=O)[C@H]1OC(C)=O` (some centres not stated) yielded an IC50 (Trypanosoma cruzi [4]) of 209 µM.

Work on `CC1(C)CCc2c(c3ccccc3c3nc(-c4ccc(Br)cc4)[nH]c23)O1` yielded an IC50 (Trypanosoma cruzi [9]) of 37.5 µM.

In the case of `Cc1cccc(S(=O)(=O)C2C3=C(OC2(C)C)c2ccccc2C(=O)C3=O)c1` (configuration not stated), the zone diameter (Staphylococcus aureus) is reported as 7 mm.

With `O=C1C(=O)c2c(O)cccc2C2=C1CCC(c1ccc(Br)cc1)O2` (configuration not stated) the IC50 (MDA-MB-435) was 0.15 µM, the IC50 (SF-295 [5]) was 0.15 µM and the IC50 (HL-60 [6]) was 0.15 µM. It also gave an IC50 (HCT-8) of 0.15 µM.

With `CC1(C)OC2=C(C(=O)C(=O)c3ccccc32)[C@H](n2cc(-c3ccc(Br)cc3)nn2)[C@H]1Br` the MIC [1] was less than 6.25 µg/mL.

Molecule `CC1(C)OC2=C(C(=O)C(=O)c3ccccc32)C1n1cc(-c2ccc([N+](=O)[O-])cc2)nn1` (configuration not stated) has an IC50 (HL-60 [6]) of 0.74 µM, an IC50 (Jurkat) of 0.74 µM and an IC50 (MOLT-4) of 0.74 µM. For the same molecule, the IC50 (K562) was 0.74 µM.

`CO[C@@H]1O[C@H](COC2C3=C(OC2(C)C)c2ccccc2C(=O)C3=O)[C@H]2OC(C)(C)O[C@@H]12` (some centres not stated) gave an IC50 (HCT-116) of 0.16 µM, an IC50 (HL-60 [2]) of 0.16 µM and an IC50 (OVCAR-8) of 0.16 µM. The IC50 (SF-295 [3]) was 0.16 µM.

Work on `CC1(C)O[C@H]2O[C@H](COC3C4=C(OC3(C)C)c3ccccc3C(=O)C4=O)[C@@H](OCc3ccccc3)[C@H]2O1` (some centres not stated) yielded an IC50 (HCT-116) of 0.16 µM, an IC50 (OVCAR-8) of 0.16 µM and an IC50 (SF-295 [3]) of 0.16 µM.

In the case of `CC1(C)CCc2c(c3ccccc3c3nc(-c4cccc(Br)c4)[nH]c23)O1`, the MIC [1] is reported as 1.56 µg/mL (≈ 3.83 µM).

`COc1ccc(-c2nc3c([nH]2)c2c(c4ccccc43)OC(C)(C)CC2)cc1` showed an IC50 (Trypanosoma cruzi [10]) of 259 µM.
